In patent publication US20240099299A1, “ANTIMICROBIAL COMPOSITIONS AND METHODS FOR THEIR PREPARATION AND USE IN TREATING PLANT DISEASES” (priority 2021, published 2024):
Structures can show the parent of a compound that is named as a salt.

What was measured:
[1] = Visual monitoring of homogeneity of 11,000 ppm OTC test solutions in pH 2 water; type: physicochemical; conditions: 11,000 ppm in pH 2 water, 10× magnification, immediately upon preparation at 75° F.; HCl
Experimental: Next, OTC solutions were prepared by first reducing the pH of water to pH 2 using hydrochloric acid. 11.0 g of PG-OTC (>95%) and non-sterile, nS-nPG-OTC (putatively 95%) each were dissolved into 1.0 L of the pH 2 water to generate 11,000 ppm test solutions, which then were monitored visually at 10× magnification. […] To elucidate the nonhomogeneous nature of the nS-nPG-OTC solutions, visualization was performed at 60× magnification, as is shown in FIG. 8 and wherein an abundance of actively growing needle-like crystals having lengths of approximately 10-250 μm are visible. These needle-like crystals likely comprise OTC and/or OTC and one or more impurities.

[2] = Uptake (injection time) of OTC solutions injected into rootstock of Valencia citrus trees; type: in vivo; conditions: for Absorption of solution by trees: overall conclusions from functional testing, nS-nPG-OTC: after the first 50 mL
Experimental: The test article solutions (11,000 ppm) were prepared as above and were fluidly pressurized into latex injection devices (FLexInect™, TJ Biotech LLC, Buffalo, SD) and then were injected into rootstock of uniform, commercially grown, Valencia citrus trees. The injection devices were monitored to measure uptake rates of the solutions.
Table 2 presents the results of Trial 1, which used trees (n=10) having trunk diameters between 2.125″ and 3.00″.
Table 3 presents the results of Trial 2, which used trees (n=10) having trunk diameters between 3.00″ and 4.25″. 100 mL of the test solutions were injected with the ambient temperature between 80° F. and 90° F.
Table 4 presents the results of Trial 3, which used trees (n=30) having trunk diameters between 3.00″ and 4.25″. Up to 100 mL of the test solutions were injected with the ambient temperature <70° F., at which temperatures transpiration in the vascular system is reduced. In this trial, the injections were stopped at 120 minutes regardless of if injections were complete.

[3] = test system: Valencia orange tree; assay: Study 1: comparison of injection and spray applications, tree vigor rating; type: in vivo; conditions: Study 1 conclusion
Experimental: Tree Vigor Ratings: 1=Lowest Vigor; 5=Highest Vigor. LSD stands for least significant difference and C.V. stands for Coefficient of Variance.
For Treatment 1, a 5,500 ppm solution of PG-OTC was prepared using distilled water. This solution then was acidified to pH 2 using hydrochloric acid. […] For Treatment 2, 2.5 g of PG-OTC was dissolved in 2 gallons of water. The resultant solution was sprayed onto the foliage of the trees at a rate of 1 quart (0.3125 g OTC·HCl) per tree (n=9). Vigor ratings were performed 60 days after application of treatments.

[4] = OTC residues in fruit after injection; type: in vivo; conditions: when using PG-OTC solutions

Structure (SMILES) | Homogeneity of solution [1] | Time (Minutes) of injection/uptake ([2]; Trial 1: 50 mL of 11,000 ppm solution, trunk diameter 2.125-3.00 in, 80-90° F., n=10, HCl) | Time (Minutes) of injection/uptake ([2]; Trial 2: 100 mL of 11,000 ppm solution, trunk diameter 3.00-4.25 in, 80-90° F., n=10, HCl) | Time (Minutes) of injection/uptake ([2]; Trial 3: up to 100 mL of 11,000 ppm solution, trunk diameter 3.00-4.25 in, <70° F., stopped at 120 minutes, n=30, HCl) | Absorption of solution by trees ([2]; HCl) | Effectiveness of trunk injection versus application of unacidified solution to foliage by spraying [3] | Residues in the fruit (within tolerance) [4] | Time (Minutes) of injection/uptake ([2]; Trial 1: 50 mL of 11,000 ppm solution, trunk diameter 2.125-3.00 in, 80-90° F., n=10) | Time (Minutes) of injection/uptake ([2]; Trial 2: 100 mL of 11,000 ppm solution, trunk diameter 3.00-4.25 in, 80-90° F., n=10) | Time (Minutes) of injection/uptake ([2]; Trial 3: up to 100 mL of 11,000 ppm solution, trunk diameter 3.00-4.25 in, <70° F., stopped at 120 minutes, n=30) | Absorption of solution by trees [2]
CN(C)[C@@H]1C(O)=C(C(N)=O)C(=O)[C@@]2(O)C(O)=C3C(=O)c4c(O)cccc4[C@@](C)(O)[C@H]3[C@H](O)[C@@H]12 [PG-OTC, Oxytetracycline HCl] | essentially homogeneous | 8.4 b Minutes | 18.2 b Minutes | 81.1 b Minutes | readily absorbed | more effective | ≤ 10 PPB |  |  |  | 
CN(C)[C@@H]1C(O)=C(C(N)=O)C(=O)[C@@]2(O)C(O)=C3C(=O)c4c(O)cccc4[C@@](C)(O)[C@H]3[C@H](O)[C@@H]12 [nS-nPG-OTC, Oxytetracycline] |  |  |  |  |  |  |  | 15.3 a Minutes | 134.7 a Minutes | 117.33 a Minutes | marked decrease in absorption rate
